System: TRPV6
Assay: TRPV6 gene activation assay (TRPV6 mRNA, QuantiGene 2.0) in differentiated C2BBe1 cells
Type: cell-based, human
Conditions: for Max. Stim., TRPV6 activation: C2BBe1 cells, fold change over DMSO normalized to 1,25D3 = 100%; for EC50: C2BBe1 cells differentiated 6 days, 24 h
Experimental: C2BBe1 (a clone of CaCO2) cells (CRL-2101, American Type Culture Collection, Manassas, VA) were maintained in DMEM (ATCC 30-2002) supplemented with 10% FBS and insulin-transferrin-selenium-G supplement (Invitrogen, Carlsbad, CA). For TRPV6 expression analysis, cells were plated in 96-well tissue culture treated plates (40,000 per well) in differentiation medium (DMEM containing 5% charcoal-stripped FBS and insulin-transferrin-sodium selenite supplement (ITS)). Cells were allowed to differentiate for 6 days with medium replacement every other day before compound treatment. The medium was removed, and serial dilutions of 1,25D3 or VDRMs in concentrations ranging from 10 μM to 2 nM in differentiation medium were added. After 24 h, the medium was removed, and cell plates were sealed and frozen at −80 °C until assayed. QuantiGene 2.0 Assay Kit (Affymetrix QS0009) was used to quantitate TRPV6 and housekeeping gene GUSB mRNA levels. Following the kit instructions, lysis buffer was added to the frozen cells and incubated briefly at 55 °C […]. Following an overnight incubation the capture plates were washed and the probes amplified following kit instructions. The resulting luminescence signal was detected on an Envision plate reader (Perkin Elmer). TRPV6 signal was normalized using the GUSB signal and the resulting data was fit to a 4-parameter logistic to determine EC50 values.

[1] = Homo sapiens, average of replicate runs

SMILES	Max. Stim., TRPV6 activation [%]	EC50 [1] [nM]	EC50 (top concentration 10 μM) [nM]
CCC(CC)(c1ccc(OCC(O)C(C)(C)C)c(C)c1)c1ccc(C(=O)N(C)CC(=O)O)c(C)c1 (stereo not drawn) [Cmpd1, [(4-{1-ethyl-1-[4-(2-hydroxy-3,3-dimethyl-butoxy)-3-methyl-phenyl]-propyl}-2-methyl-benzoyl)-methyl-amino]-acetic acid]	80.3	63	–
CCc1cc(C(CC)(CC)c2ccc(OCC(O)C(C)(C)C)c(C)c2)sc1C(=O)N[C@@H](C)C(=O)O (single isomer, unassigned) [Cmpd2, L-2-[(5-{1-Ethyl-1-[4-(2-hydroxy-3,3-dimethyl-butoxy)-3-methyl-phenyl]-propyl}-3-ethyl-thiophene-2-carbonyl)-amino]-propionic acid]	98.2	395	–
CCC(CC)(c1ccc(OCC(O)C(C)(C)C)c(C)c1)c1cc(C)c(C(=O)Nc2nnn[nH]2)s1 (stereo not drawn) [Cmpd3, 3'-[4-(2-hydroxy-3,3-dimethylbutoxy)-3-methylphenyl]-3'-[5-(tetrazol-5-yl-aminocarbonyl)-4-methylthiophen-2-yl]pentane]	17.4	–	> 10000

— paper PMC5640644, “HDX reveals the conformational dynamics of DNA sequence specific VDR co-activator interactions” (Nature Communications, 2017)
